Results on eight compounds are retold here after PubChem BioAssay (NCI).

Where “and” joins values, the source holds several entries; their conditions need not be identical. Equal values may be shown once.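 Cells were grown in 96-well plates and exposed to each compound for 48 hours at five concentrations; endpoints were interpolated linearly between bracketing concentrations, or set to the highest concentration if not reached. At the GI50, growth is halved. Definition used: TGI = concentration required for complete inhibition of growth.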

Test systems include PC-3 prostate; MDA-MB-231 breast; A549 NSCLC; OVCAR-5 ovarian; COLO 205 colon; LOX IMVI melanoma; HS 578T breast; A498 renal; T-47D breast; U251 CNS.
What all share (test): NCI anticancer screen, dose series, 48 h

Regarding `Cn1nnc2c(C(N)=O)ncn2c1=O`, the TGI is > 100 µM in the experiment with PC-3 prostate; > 100 µM in the experiment with MDA-MB-231 breast; > 100 µM with A549 NSCLC; > 100 µM with OVCAR-5 ovarian; > 100 µM in the experiment on COLO 205 colon; > 100000 nM with LOX IMVI melanoma. In addition, the TGI was > 100 µM in the experiment on HS 578T breast, > 100000 nM in the experiment with A498 renal, > 100 µM in the experiment on T-47D breast and > 100 µM with U251 CNS. Moreover, in the experiment on A498 renal, the GI50 is > 100000 nM.
Take `COc1cc(/C=C/[N+](=O)[O-])cc(OC)c1OC`: the GI50 with PC-3 prostate is 3250 nM; in the experiment on MDA-MB-231 breast it was 1870 nM; in the experiment on A549 NSCLC it was 4420 nM; in the experiment with OVCAR-5 ovarian, 2090 nM; in the experiment with COLO 205 colon it was 1700 nM; in the experiment with LOX IMVI melanoma it was 1390 nM. The GI50 in the experiment on HS 578T breast is 3460 nM; with A498 renal, 3310 nM; in the experiment on T-47D breast, 2000 nM; with U251 CNS, 2860 nM. The TGI with PC-3 prostate was found to be 10.6 µM; in the experiment on MDA-MB-231 breast, 4.86 µM; in the experiment on A549 NSCLC, 19.4 µM; in the experiment with OVCAR-5 ovarian, 5.11 µM; in the experiment with COLO 205 colon, 3.33 µM; with LOX IMVI melanoma it was 2910 nM. The TGI with HS 578T breast amounted to 28.1 µM; in the experiment with A498 renal, 14600 nM; in the experiment on T-47D breast, 9.6 µM; with U251 CNS, 10.9 µM.
`Cc1c2ccncc2c(C)c2c1c1cc(CO)ccc1n2C`: the GI50 was 294 nM in the experiment with PC-3 prostate; 456 nM in the experiment with MDA-MB-231 breast; 416 nM with A549 NSCLC; 267 nM in the experiment with OVCAR-5 ovarian; 373 nM in the experiment with COLO 205 colon; 449 nM in the experiment with LOX IMVI melanoma. For the same compound, the GI50 with HS 578T breast is 960 nM; with A498 renal it was 20 nM; with T-47D breast, 268 nM; in the experiment on U251 CNS, 293 nM. Moreover, the TGI with PC-3 prostate came to 1.39 µM; in the experiment with MDA-MB-231 breast, 2.96 µM; in the experiment on A549 NSCLC, 2.81 µM; in the experiment on OVCAR-5 ovarian, 0.984 µM; in the experiment with COLO 205 colon, 1.94 µM; in the experiment on LOX IMVI melanoma it was 2100 nM. Also, the TGI with HS 578T breast is 7.86 µM; in the experiment with A498 renal, 53.1 nM; with T-47D breast, 3.52 µM; with U251 CNS, 1.94 µM.
Take `CCN(CC)C(=S)SSC(=S)N(CC)CC`: the GI50 was 15700 nM and 23200 nM in the experiment with PC-3 prostate; 16100 nM and 16700 nM in the experiment on MDA-MB-231 breast; 25000 nM and 33000 nM in the experiment with A549 NSCLC; 35400 nM and 17900 nM with OVCAR-5 ovarian; 17000 nM and 15400 nM with COLO 205 colon; 14400 nM and 12800 nM in the experiment with LOX IMVI melanoma. For the same compound, the GI50 in the experiment on HS 578T breast was 20900 nM and 105000 nM; in the experiment with A498 renal it was 49900 nM and 109000 nM; with T-47D breast it was 15700 nM and 13000 nM; in the experiment on U251 CNS, 15800 nM and 13700 nM. Moreover, the TGI in the experiment on PC-3 prostate was 41.2 µM and 72 µM; in the experiment on MDA-MB-231 breast, 32.5 µM and 34.3 µM; in the experiment on A549 NSCLC it was > 71.9 µM and 146 µM; in the experiment on OVCAR-5 ovarian it was > 56 µM and 32.6 µM; with COLO 205 colon it was 31.8 µM and 30.1 µM; with LOX IMVI melanoma, 31200 nM and 29900 nM. The TGI in the experiment on HS 578T breast is 64 µM and 501 µM; in the experiment with A498 renal, 228000 nM; in the experiment on T-47D breast it was 51.3 µM and 39.3 µM; in the experiment on U251 CNS it was 31 µM and 30.7 µM.
`CCN1C(=O)N(CC)C2C1NN=c1s/c(=C\c3ccc[nH]3)c(=O)n12` (centres undefined): the GI50 was 372 nM in the experiment with PC-3 prostate; 3010 nM in the experiment on MDA-MB-231 breast; 523 nM with A549 NSCLC; 1590 nM with OVCAR-5 ovarian; 349 nM in the experiment with COLO 205 colon; 578 nM in the experiment on LOX IMVI melanoma. Moreover, the GI50 in the experiment with HS 578T breast is 335 nM; in the experiment with A498 renal it was 102 nM; with T-47D breast, 400 nM; in the experiment on U251 CNS, 446 nM. The TGI is > 100 µM with PC-3 prostate; > 100 µM in the experiment with MDA-MB-231 breast; > 100 µM in the experiment on A549 NSCLC; > 100 µM with OVCAR-5 ovarian; 1.82 µM in the experiment on COLO 205 colon; > 100000 nM in the experiment with LOX IMVI melanoma. The TGI was > 100 µM in the experiment on HS 578T breast, 622 nM in the experiment on A498 renal, > 100 µM in the experiment on T-47D breast and > 100 µM in the experiment with U251 CNS.
As for `C[C@@H]1COCCN1c1cc(-c2ccnn2C)c2ccnc(-c3ccn[nH]3)c2n1`, the GI50 in the experiment with PC-3 prostate is 275 nM and 454 nM; in the experiment with MDA-MB-231 breast it was 223 nM and 386 nM; in the experiment with A549 NSCLC, 62.3 nM and 190 nM; in the experiment on OVCAR-5 ovarian, 103 nM and 193 nM; in the experiment on COLO 205 colon, 280 nM and 573 nM; with LOX IMVI melanoma, 57.2 nM and 118 nM. The GI50 in the experiment on HS 578T breast is 99.4 nM and 291 nM; in the experiment with A498 renal, 21.2 nM and 37.3 nM; in the experiment with T-47D breast, 159 nM and 384 nM; in the experiment on U251 CNS it was 260 nM and 1000 nM. Besides, the TGI in the experiment with PC-3 prostate is > 100 µM; with MDA-MB-231 breast, 10.7 µM and > 69.9 µM; with OVCAR-5 ovarian, > 100 µM; with COLO 205 colon it was 5.7 µM and > 23.4 µM; with LOX IMVI melanoma, 421 nM and 1510 nM; in the experiment with HS 578T breast it was 0.643 µM and 2.06 µM. In addition, the TGI was 83.8 nM and 226 nM with A498 renal; 0.79 µM and 2.81 µM in the experiment on T-47D breast; 14.6 µM and > 100 µM in the experiment on U251 CNS.
For the compound `CCN(CC)C(=O)COc1cc2c(O)c3c(O)c(C)c4c(c13)C(=O)C(C)(OC=CC(OC)C(C)C(OC(C)=O)C(C)C(O)C(C)C(O)C(C)C=CC=C(C)C(=O)N2)O4` (centres undefined), the TGI with PC-3 prostate was > 100 µM; in the experiment on MDA-MB-231 breast, > 100 µM; with A549 NSCLC, > 100 µM; in the experiment with OVCAR-5 ovarian, > 100 µM; in the experiment on LOX IMVI melanoma, > 100000 nM; with HS 578T breast, > 100 µM. In addition, the TGI was > 100000 nM in the experiment on A498 renal, > 100 µM with T-47D breast and > 100 µM with U251 CNS.
For `Nc1ncccc1-c1nc2ccc(-c3ccccc3)nc2n1-c1ccc(C2(N)CCC2)cc1`, the GI50 with PC-3 prostate was 53.3 nM; in the experiment with MDA-MB-231 breast, 1460 nM; with A549 NSCLC, 1690 nM; with OVCAR-5 ovarian it was 1530 nM; in the experiment with COLO 205 colon it was 422 nM; in the experiment with LOX IMVI melanoma, 1370 nM. Further, the GI50 was 253 nM in the experiment on HS 578T breast, 79.1 nM in the experiment with A498 renal, < 11.8 nM in the experiment with T-47D breast and 746 nM with U251 CNS. Also, the TGI in the experiment on PC-3 prostate was determined as 3.39 µM; with MDA-MB-231 breast it was 3.39 µM; in the experiment with A549 NSCLC it was 6.81 µM; with OVCAR-5 ovarian, 8.23 µM; in the experiment with COLO 205 colon it was 2.14 µM; in the experiment with LOX IMVI melanoma, 2770 nM. The TGI in the experiment on HS 578T breast stood at 2.31 µM; with A498 renal, 654 nM; in the experiment with T-47D breast, 0.158 µM; in the experiment on U251 CNS it was 2.31 µM.
